{"source": "paper PMC7407491", "about": "“The Addition of a Synthetic LPS-Targeting Domain Improves Serum Stability While Maintaining Antimicrobial, Antibiofilm, and Cell Stimulating Properties of an Antimicrobial Peptide” (Biomolecules, 2020)", "key": {"[1]": {"assay": "Activity after incubation in serum (functional serum stability)", "format": "in vitro ADME, pig", "protocol": "To compare serum stability, a similar procedure was utilized, as described in Dong et al., with some modification. Briefly, a solution of 25% pig serum was made by diluting fresh pig serum with phosphate buffer saline (PBS). […] Suspension containing no peptide was considered the negative control. Experimental and control tubes were incubated for up to 7 or 24 h in 37 °C to allow for serum constituent interaction with the peptide. […] Experimental and control tubes were incubated for 2 h at 37 °C without shaking to allow for bactericidal action to occur. […] This experiment was carried out three independent times. […] On the other hand, SynPG-1 maintained strong antimicrobial activity even after 24 h of incubation in serum, indicated through a consistently low mean % growth, as compared to the controls seen in Figure 2b. […] All experiments were conducted three independent times. […] Data represent the mean ± SEM of three experiments. The asterisk represents p < 0.05 when compared with SynPG-1 by two-way ANOVA with a post hoc Tukey test."}, "S. typhimurium biofilm": {"test_system": "S. typhimurium biofilm", "assay": "Enumeration of viable cells after biofilm inhibition", "format": "cell-based, Salmonella typhimurium", "conditions": "4 µg/mL, 48 h biofilm formation, CFU plated", "protocol": "In order to investigate whether prevention or degradation of biofilm by peptide treatment impacted bacterial cell growth within the biofilm, an enumeration assay was carried out. The following protocol was developed using methods described in the work by Wilson et al.. Briefly, in separate 15 mL culture tubes, 20 µL of overnight culture of either E. coli, S. typhimurium, or MRSA were added to 1 mL of minimal salt media (40 mM […]; 22 mM KH2PO4; […] NH4CL; 740 mM NaCl; 2 mM MgSO4; 0.1 mM CaCl2; 22 mM supplemented with D-Glucose) and treated with PG-1 or SynPG-1. Due to the laborious procedure, the study was limited to measuring cell viability for only two concentrations, basing the choice on the highest significant reduction of biomass from crystal violet staining for each strain. […] These concentrations were chosen for the enumeration assay. In instances where no substantial reduction was seen, as in the case of E. coli, the highest tested biomass concentration, or higher, was chosen to confirm the lack of activity on viability. […] Tubes were placed in a static incubator at 37 °C for 48 h; the time required for untreated wells to form biofilm. After 48 h, treated media was removed and wells were rinsed with 1 mL of PBS to remove planktonic cells. […] CFU was recorded. […]"}}, "note": "Bridge positions count the residues as written; N and C are the ends. Peptide text beside a SMILES is read from it.", "data": [{"smiles": "CC[C@H](C)[C@H](NC(=O)[C@H](CCCCN)NC(=O)[C@H](CCCNC(=N)N)NC(=O)[C@H](CC(C)C)NC(=O)[C@H](CC(C)C)NC(=O)[C@H](CCCNC(=N)N)NC(=O)[C@H](CCCNC(=N)N)NC(=O)[C@H](CC(C)C)NC(=O)CN)C(=O)N[C@@H](CCCNC(=N)N)C(=O)NCC(=O)N[C@@H](CCCNC(=N)N)C(=O)N[C@@H](Cc1c[nH]c2ccccc12)C(=O)N[C@@H](CCCCN)C(=O)NCC(=O)NCC(=O)NCC(=O)N[C@@H](CCCNC(=N)N)C(=O)NCC(=O)NCC(=O)N[C@@H](CCCNC(=N)N)C(=O)N[C@@H](CC(C)C)C(=O)N[C@H]1CSSC[C@@H](C(=O)N[C@H](C(=O)NCC(=O)N[C@@H](CCCNC(=N)N)C(=O)O)C(C)C)NC(=O)[C@H](C(C)C)NC(=O)[C@@H]2CSSC[C@H](NC(=O)[C@H](Cc3ccc(O)cc3)NC1=O)C(=O)N[C@@H](CCCNC(=N)N)C(=O)N[C@@H](CCCNC(=N)N)C(=O)N[C@@H](CCCNC(=N)N)C(=O)N[C@@H](Cc1ccccc1)C(=O)N2", "note": "[SynPG-1, Syn-Protegrin-1] (H-GLRRLLRKIRGRWKGGGRGGRLCYCRRRFCVCVGR-OH; disulfide 23-32, 25-30; N-terminus and C-terminus assumed)", "values": [{"measurement": "Time of incubation in 25% serum for which antimicrobial activity is maintained", "setting": "[1]", "result": "≤ 24", "unit": "h"}, {"measurement": "Increase in stability in 25% serum versus PG-1", "setting": "[1]; 24 h versus 2 h of retained activity in 25% serum", "result": 12, "unit": "fold"}, {"measurement": "Reduction of mean % growth of control compared with PG-1", "setting": "S. typhimurium biofilm", "result": "significantly lower reduction of mean % growth of control"}]}]}
